In the supplement of paper PMC10307832:

Key:
Assay in all cases: relative viability (nuclei count vs DMSO), 5 days (fraction); higher = more cells survive
[1] = compound: Cc1cnc(CNC(=O)c2c(=O)c3ccc(N4CCCN(C)CC4)nc3n3c2sc2ccccc23)cn1 [CX-5461] + COc1cc2c(Oc3ccc(NC(=O)C4(C(=O)Nc5ccc(F)cc5)CC4)cc3F)ccnc2cc1OCCCN1CCOCC1 [Foretinib] (partner 0.25 µM)
How it was run: (§1)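 Five library-drug doses in √10 steps were combined with a fixed anchor-drug dose, or a single drug was given alone, by pin tool to lung cancer cell lines in 1536-well plates the day after seeding. Nuclei were stained and counted after 5 days. Relative viability is the nuclei count in treated wells over that in vehicle wells, taken as the median of duplicate plates.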

[2] = compound: Cc1cnc(CNC(=O)c2c(=O)c3ccc(N4CCCN(C)CC4)nc3n3c2sc2ccccc23)cn1 [CX-5461] + CS(=O)(=O)CCNCc1ccc(-c2ccc3ncnc(Nc4ccc(OCc5cccc(F)c5)c(Cl)c4)c3c2)o1 [Lapatinib] (partner 2 µM)
How it was run: as §1

[3] = compound: O=C(Nc1cc(C(F)(F)F)cc(C(F)(F)F)c1)c1cc(Cl)ccc1O [IMD-0354] + NC(=O)Nc1cc(-c2cccc(F)c2)sc1C(=O)N[C@H]1CCCNC1 [AZD7762] (partner 0.2 µM)
How it was run: as §1

[4] = compound: O=C(Nc1cc(C(F)(F)F)cc(C(F)(F)F)c1)c1cc(Cl)ccc1O [IMD-0354] + COc1cccc2cc(-c3nc([C@H]4CC[C@H](C(=O)O)CC4)n4ncnc(N)c34)[nH]c12 [OSI-027] (partner 0.5 µM)
How it was run: as §1

Cell Line	relative viability ([1]; first compound 0.01 µM)	relative viability ([1]; first compound 0.03162 µM)	relative viability ([1]; first compound 0.1 µM)	relative viability ([1]; first compound 0.3162 µM)	relative viability ([1]; first compound 1 µM)	relative viability ([2]; first compound 0.01 µM)	relative viability ([2]; first compound 0.03162 µM)	relative viability ([2]; first compound 0.1 µM)	relative viability ([2]; first compound 0.3162 µM)	relative viability ([2]; first compound 1 µM)	relative viability ([3]; first compound 0.04 µM)	relative viability ([3]; first compound 0.1265 µM)	relative viability ([3]; first compound 0.4 µM)	relative viability ([3]; first compound 1.265 µM)	relative viability ([3]; first compound 4 µM)	relative viability ([4]; first compound 0.04 µM)	relative viability ([4]; first compound 0.1265 µM)	relative viability ([4]; first compound 0.4 µM)	relative viability ([4]; first compound 1.265 µM)	relative viability ([4]; first compound 4 µM)
HCC-366	1.03	0.913	0.924	0.756	0.931	1.14	1	0.812	0.04	0.0982	0.277	0.361	0.148	0.0408	0.048	0.909	0.929	0.496	0.209	0.0404
IA-LM	1.21	1.12	1.14	1.07	0.885	0.692	0.748	0.715	0.669	0.475	–	–	–	–	–	–	–	–	–	–
LCLC-103H	0.81	0.867	0.681	1.02	0.798	–	–	–	–	–	0.952	0.907	0.554	0.47	0.257	0.592	0.471	0.375	0.295	0.196
NCI-H441	0.88	1.02	0.615	0.889	0.778	–	–	–	–	–	1.4	1.31	0.664	0.24	0.293	0.593	0.604	0.329	0.169	0.231
NCI-H520	0.748	0.677	0.721	0.503	0.725	0.782	0.692	0.784	0.619	0.491	–	–	–	–	–	0.297	0.27	0.194	0.283	0.129
NCI-H522	–	–	–	–	–	–	–	–	–	–	1.05	0.815	0.702	0.766	0.461	0.723	0.683	0.688	0.385	0.343
NCI-H661	0.928	0.98	0.985	0.497	0.673	0.382	0.533	0.611	–	0.402	–	–	–	–	–	0.812	0.66	0.577	0.264	0.25
NCI-H1299	1.06	1.06	1.09	1.06	1.11	0.945	0.975	1	0.982	0.866	–	–	–	–	–	–	–	–	–	–
NCI-H1563	0.88	0.826	0.806	0.826	0.569	0.889	0.852	0.661	0.683	0.477	–	–	–	–	–	0.775	0.769	0.66	0.297	0.413
NCI-H1623	0.971	0.871	0.809	0.934	0.723	–	–	–	–	–	–	–	–	–	–	0.464	0.395	0.458	0.409	0.37
NCI-H1648	–	–	–	–	–	–	–	–	–	–	0.616	0.715	0.526	0.705	0.297	–	0.27	0.287	0.244	0.278
NCI-H1650	1.35	1.45	0.958	0.928	0.385	0.714	0.714	–	0.229	0.19	–	–	–	–	–	0.704	0.491	0.362	0.189	0.259
NCI-H1703	0.359	0.311	0.357	0.363	0.28	1.2	1.45	1.1	1.14	0.502	0.124	0.0845	0.141	0.142	0.117	–	–	–	–	–
NCI-H1792	–	–	–	–	–	0.919	1.08	0.923	0.85	0.788	0.896	0.517	0.551	0.17	0.0979	0.791	0.701	0.35	0.394	0.418
NCI-H2009	1.24	1.17	1.07	1.18	1.04	0.906	1.04	0.584	0.39	0.466	–	–	–	–	–	0.703	0.564	0.416	0.133	0.109
NCI-H2023	0.954	0.71	0.733	0.552	0.108	0.788	0.794	–	0.143	0.106	–	–	–	–	–	0.484	0.382	0.274	0.105	0.108
NCI-H2228	0.691	1.03	0.763	0.747	0.13	1.13	0.764	0.473	0.668	0.166	–	–	–	–	–	0.586	0.431	0.348	0.23	0.142
NCI-H2342	0.98	1.1	1.07	1.03	1.08	–	–	–	–	–	0.539	0.509	0.469	0.31	0.385	0.723	0.659	0.499	0.472	0.482
SK-LU-1	0.818	0.857	0.736	–	0.326	0.948	0.837	0.852	0.96	0.535	–	–	–	–	–	0.32	0.305	0.277	0.181	0.193
SK-MES-1	1.05	1.05	1.04	1.08	0.838	0.431	0.474	0.454	0.512	0.403	–	–	–	–	–	0.647	0.542	0.462	0.199	0.202
SW 900	0.967	0.968	1.07	1.08	0.811	–	–	–	–	–	0.649	0.693	0.441	0.24	0.254	0.64	0.674	0.308	0.263	0.248
SW 1573	0.887	0.83	0.98	0.397	0.531	1.2	1.26	0.989	0.691	0.546	–	–	–	–	–	0.849	0.566	0.349	0.124	0.0864
